Test results from patent US20250179032A1, “HETEROCYCLIC INHIBITORS OF GLUT9 FOR TREATMENT OF DISEASE” (HORIZON THERAPEUTICS IRELAND DAC, priority 2022, published 2025).

Molecular target: T1, H. sapiens SLC2A9 variant 2 (GLUT9B) (Homo sapiens, UniProt Q9NRM0)
T1 sequence (Q9NRM0 1-511 isoform Q9NRM0-2): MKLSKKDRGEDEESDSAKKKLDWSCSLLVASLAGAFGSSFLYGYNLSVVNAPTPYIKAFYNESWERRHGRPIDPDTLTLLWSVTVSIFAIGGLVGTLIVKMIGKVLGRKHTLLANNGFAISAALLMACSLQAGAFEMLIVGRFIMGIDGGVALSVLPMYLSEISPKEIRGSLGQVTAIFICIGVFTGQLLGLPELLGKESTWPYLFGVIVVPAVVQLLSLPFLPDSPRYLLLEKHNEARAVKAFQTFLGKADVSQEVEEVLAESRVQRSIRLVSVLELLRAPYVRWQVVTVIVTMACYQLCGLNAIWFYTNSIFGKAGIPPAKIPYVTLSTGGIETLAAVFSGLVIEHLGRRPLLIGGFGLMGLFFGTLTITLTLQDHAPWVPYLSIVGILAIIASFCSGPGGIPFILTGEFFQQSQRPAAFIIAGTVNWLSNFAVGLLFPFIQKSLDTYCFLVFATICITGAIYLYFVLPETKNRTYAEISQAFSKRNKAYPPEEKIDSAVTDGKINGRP
Test: GLUT9 functional assay: uric acid uptake in HEK293T cells, allantoin formation by MS/MS as proxy of GLUT9B inhibition
Type: cell-based
Settings: 15 minute assay; HEK293T cells stably expressing GLUT9B and transiently A. oryzae uricase; uric acid 0.3 mM, 37° C.; read-out: 15 min IC50
In short: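 Inhibition of GLUT9B-mediated urate uptake read as reduced allantoin formation, measured by MS/MS against allantoin standards in HEK293T matrix with log-logistic fitting. Stable GLUT9B HEK293T cells carrying transfected A. oryzae uricase were incubated 15 or 60 min at 37° C with uric acid at Km (0.3 mM), pH 7.4 gluconate buffer.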

SMILES | IC50 [nM]
CS(=O)(=O)NC(=O)C1CCN(c2nc(COCC(F)(F)F)cnc2-c2cc(F)c3occc3c2)CC1 [Compound 66, 1-(3-(7-fluorobenzofuran-5-yl)-6-((2,2,2-trifluoroethoxy)methyl)pyrazin-2-yl)-N-(methylsulfonyl)piperidine-4-carboxamide] | 500 to 2000
COCCOc1ccc(-c2ncc(COCC(F)(F)F)nc2N2CCC(C(=O)NS(C)(=O)=O)CC2)cc1 [Compound 67, 1-(3-(4-(2-methoxyethoxy)phenyl)-6-((2,2,2-trifluoroethoxy)methyl)pyrazin-2-yl)-N-(methylsulfonyl)piperidine-4-carboxamide] | > 2000
COCCOc1ccc(-c2ncc(COCC(F)(F)F)nc2N2CCC(c3nn[nH]n3)CC2)cc1 [Compound 68, 3-(4-(2H-tetrazol-5-yl)piperidin-1-yl)-2-(4-(2-methoxyethoxy)phenyl)-5-((2,2,2-trifluoroethoxy)methyl)pyrazine] | > 2000
O=C(O)C1CCN(c2nc(CCC3CC3)cnc2-c2cc(F)c3occc3c2)CC1 [Compound 73, 1-(6-(2-cyclopropylethyl)-3-(7-fluorobenzofuran-5-yl)pyrazin-2-yl)piperidine-4-carboxylic acid] | < 500
COCCOc1ccc(-c2ncc(CCC3CC3)nc2N2CCC(C(=O)O)CC2)cc1 [Compound 74, 1-(6-(2-cyclopropylethyl)-3-(4-(2-methoxyethoxy)phenyl)pyrazin-2-yl)piperidine-4-carboxylic acid] | 500 to 2000
O=C(O)C1CCN(c2nc(COCC(F)(F)F)cnc2-c2ccc(OC3CC3)cc2)CC1 [Compound 75, 1-(3-(4-cyclopropoxyphenyl)-6-((2,2,2-trifluoroethoxy)methyl)pyrazin-2-yl)piperidine-4-carboxylic acid] | > 2000
CCCCc1cnc(-c2ccc3c(c2)CC(C)(C)O3)c(N2CCC(C(=O)O)CC2)n1 [Compound 79, 1-(6-butyl-3-(2,2-dimethyl-2,3-dihydrobenzofuran-5-yl)pyrazin-2-yl)piperidine-4-carboxylic acid] | > 2000
CN(C)S(=O)(=O)NC(=O)C1CCN(c2nc(COCC(F)(F)F)cnc2-c2cc(F)c3occc3c2)CC1 [Compound 80, N-(N,N-dimethylsulfamoyl)-1-(3-(7-fluorobenzofuran-5-yl)-6-((2,2,2-trifluoroethoxy)methyl)pyrazin-2-yl)piperidine-4-carboxamide] | 500 to 2000
O=c1[nH]c(C2CCN(c3nc(COCC(F)(F)F)cnc3-c3cc(F)c4occc4c3)CC2)no1 [Compound 82, 3-(1-(3-(7-fluorobenzofuran-5-yl)-6-((2,2,2-trifluoroethoxy)methyl)pyrazin-2-yl)piperidin-4-yl)-1,2,4-oxadiazol-5(4H)-one] | < 500
O=S1NC(C2CCN(c3nc(COCC(F)(F)F)cnc3-c3cc(F)c4occc4c3)CC2)=NO1 (stereo not drawn) [Compound 83, 4-(1-(3-(7-fluorobenzofuran-5-yl)-6-((2,2,2-trifluoroethoxy)methyl)pyrazin-2-yl)piperidin-4-yl)-3H-1,2,3,5-oxathiadiazole 2-oxide] | 500 to 2000
COCCOc1ccc(-c2ncc(CCS(C)(=O)=O)nc2N2CCC(C(=O)O)CC2)cc1 [Compound 85, 1-(3-(4-(2-methoxyethoxy)phenyl)-6-(2-(methylsulfonyl)ethyl)pyrazin-2-yl)piperidine-4-carboxylic acid] | > 2000
O=C(O)CC1CCN(c2nc(CCC(F)(F)F)cnc2-c2cc(F)c3occc3c2)C1 (stereo not drawn) [Compound 88, 2-(1-(3-(7-fluorobenzofuran-5-yl)-6-(3,3,3-trifluoropropyl)pyrazin-2-yl)pyrrolidin-3-yl)acetic acid] | 500 to 2000
O=C(O)CCC1CN(c2nc(CCC(F)(F)F)cnc2-c2cc(F)c3occc3c2)C1 [Compound 89, 3-(1-(3-(7-fluorobenzofuran-5-yl)-6-(3,3,3-trifluoropropyl)pyrazin-2-yl)azetidin-3-yl)propanoic acid] | 500 to 2000
O=C(O)CC1CN(c2nc(CCC(F)(F)F)cnc2-c2cc(F)c3occc3c2)C1 [Compound 90, 2-(1-(3-(7-fluorobenzofuran-5-yl)-6-(3,3,3-trifluoropropyl)pyrazin-2-yl)azetidin-3-yl)acetic acid] | 500 to 2000
N#CC1(C(=O)O)CCN(c2nc(CCC(F)(F)F)cnc2-c2cc(F)c3occc3c2)CC1 [Compound 93, 4-cyano-1-(3-(7-fluorobenzofuran-5-yl)-6-(3,3,3-trifluoropropyl)pyrazin-2-yl)piperidine-4-carboxylic acid] | 500 to 2000

Second part, the compound after the results:

IC50 [nM] | SMILES
< 500 | Fc1cc(-c2ncc(COCC(F)(F)F)nc2N2CCC(c3nn[nH]n3)CC2)cc2ccoc12 [Compound 65, 3-(4-(2H-tetrazol-5-yl)piperidin-1-yl)-2-(7-fluorobenzofuran-5-yl)-5-((2,2,2-trifluoroethoxy)methyl)pyrazine]
< 500 | Fc1cc(-c2ncc(CCC(F)(F)F)nc2N2CCC(c3nn[nH]n3)CC2)cc2ccoc12 [Compound 69, 3-(4-(2H-tetrazol-5-yl)piperidin-1-yl)-2-(7-fluorobenzofuran-5-yl)-5-(3,3,3-trifluoropropyl)pyrazine]
500 to 2000 | COCCOc1ccc(-c2ncc(CCC(F)(F)F)nc2N2CCC(C(=O)NS(C)(=O)=O)CC2)cc1 [Compound 70, 1-(3-(4-(2-methoxyethoxy)phenyl)-6-(3,3,3-trifluoropropyl)pyrazin-2-yl)-N-(methylsulfonyl)piperidine-4-carboxamide]
< 500 | COCCOc1ccc(-c2ncc(CCC(F)(F)F)nc2N2CCC(c3nn[nH]n3)CC2)cc1 [Compound 71, 3-(4-(2H-tetrazol-5-yl)piperidin-1-yl)-2-(4-(2-methoxyethoxy)phenyl)-5-(3,3,3-trifluoropropyl)pyrazine]
> 2000 | O=C(O)C1CCN(c2nc(COCC(F)(F)F)cnc2-c2cnc3c(c2)CCO3)CC1 [Compound 72, 1-(3-(2,3-dihydrofuro[2,3-b]pyridin-5-yl)-6-((2,2,2-trifluoroethoxy)methyl)pyrazin-2-yl)piperidine-4-carboxylic acid]
500 to 2000 | O=C(O)C1CCN(c2nc(COCC(F)(F)F)cnc2-c2ccc(OC3CC3)c(F)c2)CC1 [Compound 76, 1-(3-(4-cyclopropoxy-3-fluorophenyl)-6-((2,2,2-trifluoroethoxy)methyl)pyrazin-2-yl)piperidine-4-carboxylic acid]
> 2000 | O=C(O)C1CCN(c2nc(COCC(F)(F)F)cnc2-c2ccc(OCC3CC3)cc2)CC1 [Compound 77, 1-(3-(4-(cyclopropylmethoxy)phenyl)-6-((2,2,2-trifluoroethoxy)methyl)pyrazin-2-yl)piperidine-4-carboxylic acid]
> 2000 | O=C(O)C1CCN(c2nc(COCC(F)(F)F)cnc2-c2ccc(OCC3CC3)c(F)c2)CC1 [Compound 78, 1-(3-(4-(cyclopropylmethoxy)-3-fluorophenyl)-6-((2,2,2-trifluoroethoxy)methyl)pyrazin-2-yl)piperidine-4-carboxylic acid]
500 to 2000 | O=c1[nH]c(C2CCN(c3nc(COCC(F)(F)F)cnc3-c3cc(F)c4occc4c3)CC2)ns1 [Compound 81, 3-(1-(3-(7-fluorobenzofuran-5-yl)-6-((2,2,2-trifluoroethoxy)methyl)pyrazin-2-yl)piperidin-4-yl)-1,2,4-thiadiazol-5(4H)-one]
> 2000 | CS(=O)(=O)CCc1cnc(-c2cc(F)c3occc3c2)c(N2CCC(C(=O)O)CC2)n1 [Compound 84, 1-(3-(7-fluorobenzofuran-5-yl)-6-(2-(methylsulfonyl)ethyl)pyrazin-2-yl)piperidine-4-carboxylic acid]
500 to 2000 | COCCOc1ccc(-c2ncc(CCC(F)(F)F)nc2N2CCC(C(=O)O)CC2)cc1 [Compound 86, 1-(3-(4-(2-methoxyethoxy)phenyl)-6-(3,3,3-trifluoropropyl)pyrazin-2-yl)piperidine-4-carboxylic acid]
> 2000 | O=C(O)C1CCN(c2nc(CCC(F)(F)F)cnc2-c2cnc3c(c2)CCO3)CC1 [Compound 87, 1-(3-(2,3-dihydrofuro[2,3-b]pyridin-5-yl)-6-(3,3,3-trifluoropropyl)pyrazin-2-yl)piperidine-4-carboxylic acid]
< 500 | O=C(O)C1(O)CCN(c2nc(CCC(F)(F)F)cnc2-c2cc(F)c3occc3c2)CC1 [Compound 91, 1-(3-(7-fluorobenzofuran-5-yl)-6-(3,3,3-trifluoropropyl)pyrazin-2-yl)-4-hydroxypiperidine-4-carboxylic acid]
500 to 2000 | COC1(C(=O)O)CCN(c2nc(CCC(F)(F)F)cnc2-c2cc(F)c3occc3c2)CC1 [Compound 92, 1-(3-(7-fluorobenzofuran-5-yl)-6-(3,3,3-trifluoropropyl)pyrazin-2-yl)-4-methoxypiperidine-4-carboxylic acid]
500 to 2000 | O=C(O)C1C2CC1CN(c1nc(CCC(F)(F)F)cnc1-c1cc(F)c3occc3c1)C2 (stereo not drawn) [Compound 94, 3-(3-(7-fluorobenzofuran-5-yl)-6-(3,3,3-trifluoropropyl)pyrazin-2-yl)-3-azabicyclo[3.1.1]heptane-6-carboxylic acid]
